Patent publication US20140163095A1, “USE OF ERIBULIN IN THE TREATMENT OF BREAST CANCER” (priority 2012, published 2014)

System: locally advanced or metastatic breast cancer
Assay: Phase III clinical trial comparing eribulin mesylate and capecitabine
[1] = of patients with any new metastasis

Protocol: A global, randomized, open-label, two-parallel-arm, phase III clinical trial of eribulin (eribulin mesylate) and capecitabine was performed.
This study randomized 1102 patients who had up to three prior chemotherapy regimens, and no more than two prior regimens for advanced and/or metastatic disease. The prior regimens must have included an anthracycline and a taxane, either in the (neo) adjuvant setting or for locally advanced or metastatic disease. Patients must have had documented evidence of progression during or after their most recent anti-cancer therapy. […] Patients were randomized to receive either eribulin mesylate as an intravenous (IV) infusion of 1.4 mg/m^2 over 2-5 minutes on days 1 and 8 every 21 days or capecitabine as an oral administration of 2.5 g/m^2/day administered twice daily in two equal doses on days 1 to 14 every 21 days.
This study was designed to have co-primary endpoints, overall survival (OS) and progression free survival (PFS), with alpha spending 0.04 and 0.01, respectively.
Progression events (disease progression determined by Response Evaluation Criteria in Solid Tumors [RECIST, version 1.0]) were categorized as: (i) emergence of a new lesion/metastasis, defined here as a lesion identified at progression that had not been previously reported, (ii) increase in size of an existing (previously reported) lesion (target or non-target), and (iii) other PFS event, e.g., death, clinical progression, or censoring. Investigator review of disease progression was used as the primary analysis for these investigations. Where progression was determined by investigator review, no further scans were performed, leading to informative censoring of independent review data (approximately 20%). The number of new metastases observed by independent review was considered an under-estimate due to this considerable informative censoring. OS and PFS were compared between treatment arms using two-sided, stratified (geographic region and HER2 status) log-rank tests. The correlation between progression events and OS was investigated by Cox regression, incorporating the event as a time-dependent covariate. New metastasis-free survival, defined as time from randomization to death or progression due to appearance of a new metastasis (whichever occurs earlier), was also analyzed.

SMILES: CCCCCOC(=O)Nc1nc(=O)n([C@@H]2O[C@H](C)[C@@H](O)[C@H]2O)cc1F [Capecitabine, reference compound]
- median overall survival (OS) (all randomized patients): 14.5 months
- median progression-free survival (PFS) (all randomized patients): 4.2 months
- New metastasis site: Bone, patients (count): 62
- New metastasis site: Breast, patients (count): 13
- New metastasis site: CNS (brain/spine), patients (count): 25
- New metastasis site: Chest wall, patients (count): 5
- New metastasis site: Liver, patients (count): 74
- New metastasis site: Lung, patients (count): 76
- New metastasis site: Lymph nodes, patients (count): 55
- New metastasis site: Other, patients (count): 53
- New metastasis site: Skin, patients (count): 26
- Number of patients with any new metastasis observed (count, investigator review, intent-to-treat): 316
- patients with progression due to a new metastasis (investigator review): 52.0%
- patients with progression due to increase in the size of a pre-existing lesion (investigator review): 23.5%
- patients with progression due to other reasons such as death and clinical progression (investigator review): 24.5%
- patients with any new metastasis observed, percentage (investigator review, intent-to-treat): (57.7) %
- New metastasis site: Bone, percentage [1]: (19.6) %
- New metastasis site: Breast, percentage [1]: (4.1) %
- New metastasis site: CNS (brain/spine), percentage [1]: (7.9) %
- New metastasis site: Chest wall, percentage [1]: (1.6) %
- New metastasis site: Liver, percentage [1]: (23.4) %
- New metastasis site: Lung, percentage [1]: (24.1) %
- New metastasis site: Lymph nodes, percentage [1]: (17.4) %
- New metastasis site: Other, percentage [1]: (16.8) %
- New metastasis site: Skin, percentage [1]: (8.2) %
- Median OS (patients whose disease progressed due to other events): 15.5 months
- Median OS (patients with progression due to new metastasis): 12.9 months
- Median OS (patients with progression due to pre-existing lesion): 17.4 months
